In patent US9750757B2, “Methods of prevention or treatment for pathologic thrombosis or inflammation” (THOMAS JEFFERSON UNIVERSITY, priority 2013, dated 2017):
“Also recorded” adds a separate entry of the source.

Legend:
[1] = system: platelet rich plasma (PRP); test: Light transmission aggregometry in platelet rich plasma, agonist-induced maximal aggregation (PRAX1); assay type: cell-based, human; details: for Mean percent maximal aggregation, Black: PRP of black subjects; for Mean percent maximal aggregation, White: PRP of white subjects
Experimental: (1) Houston studies. A complete blood count and mean platelet volume were obtained using an ABX Micros 60 CS (Horiba ABX, Irvine, Calif., USA). Using light transmission aggregometry, maximal percent aggregation and slope of aggregation at 10 min in platelet rich plasma (PRP) treated with: 0.5 mg/ml arachidonic acid, 4 μM ADP, 1 μM and 2 μM PAR1 activating peptide (PAR1-AP), and 50 μM and 75 μM PAR4 activating peptide (PAR4-AP) were measured. (2) Philadelphia studies. Light transmission aggregometry of washed platelets was used to assess thrombin-induced platelet aggregation without or with a 2 min pre-incubation with 20 μM BMS-200261 (BMS, PAR1-specific antagonist) (Quinton et al., J. Biol. Chem. 2004, 279, 18434-18439). A difference in the efficacy of the PAR1 inhibitor was observed between the pilot and replicate studies, but validation of inhibitor activity was confirmed for both studies (FIG. 1B inset and FIG. 7E). For assessment of calcium mobilization, platelets were re-calcified to a final concentration of 1 mM followed by pre-incubation with Fluo-4 AM for 10 min. The platelets were then stimulated with PAR4-AP and calcium mobilization was measured using the Accuri C6 flow cytometer (Yeung et al., Mol. Pharmacol. 2012, 81, 420-430). In both Houston and Philadelphia, technical variation was minimized by use of the same highly-trained technicians, same lots of reagents and same instruments throughout the duration of the study. Because multiple concentrations were used to activate PAR1 and PAR4 to induce platelet aggregation, an integrated score was developed that combined these values to determine a single index that represented each individual's agonist response. This score correlated strongly with standard assessment of maximal percent aggregation, but inclusion of slope (which was a minor contributor to the overall score, and highly related to maximal aggregation) allowed distinction among platelets with the same maximal aggregation value. This score was highly reproducible in 10 subjects studied weekly for three or four weeks.

PC-TP [2] = target: T1, PC-TP (Homo sapiens, UniProt Q9UKL6); details: Shishova et al. 2011; cited from earlier work
T1 sequence (Q9UKL6 1-214): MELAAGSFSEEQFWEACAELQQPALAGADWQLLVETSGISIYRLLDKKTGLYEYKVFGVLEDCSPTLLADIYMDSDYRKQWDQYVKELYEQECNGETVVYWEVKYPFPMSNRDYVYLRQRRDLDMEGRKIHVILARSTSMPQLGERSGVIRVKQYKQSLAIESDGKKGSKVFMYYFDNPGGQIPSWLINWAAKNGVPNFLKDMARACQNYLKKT

[3] = system: platelets, PAR4-AP-induced aggregation; test: PAR4-AP-induced aggregation of washed platelets (light transmission aggregometry); assay type: cell-based; details: washed human platelets incubated 30 min with inhibitor; sub-threshold concentrations of PAR4-AP
Experimental: (§1) The indicated concentrations of LDN-193,188 were incubated for 30 min with washed platelets and stimulated with sub-threshold concentrations of activating PAR peptides. […] Biol. Chem. 2004, 279, 18434-18439). […] For assessment of calcium mobilization, platelets were re-calcified to a final concentration of 1 mM followed by pre-incubation with Fluo-4 AM for 10 min. The platelets were then stimulated with PAR4-AP and calcium mobilization was measured using the Accuri C6 flow cytometer (Yeung et al., Mol. Pharmacol. 2012, 81, 420-430). In both Houston and Philadelphia, technical variation was minimized by use of the same highly-trained technicians, same lots of reagents and same instruments throughout the duration of the study. […] This score correlated strongly with standard assessment of maximal percent aggregation, but inclusion of slope (which was a minor contributor to the overall score, and highly related to maximal aggregation) allowed distinction among platelets with the same maximal aggregation value. This score was highly reproducible in 10 subjects studied weekly for three or four weeks.

PC-TP [4] = target: T1, PC-TP; details: Wagel et al. 2008; cited from earlier work
[5] = system: platelets, PAR1-AP-induced aggregation; test: PAR1-AP-induced aggregation of washed platelets (light transmission aggregometry); assay type: cell-based; details: washed human platelets incubated 30 min with inhibitor; sub-threshold concentrations of PAR1-AP
Experimental: as §1

For `CCCCC/C=C\C/C=C\C/C=C\C/C=C\CCCC(=O)O` [AA, arachidonic acid], the “Fold difference (Black/White)” value ([1]; 500 μg/ml AA) was 0.99 fold, the “Mean percent maximal aggregation, Black” value ([1]; 500 μg/ml AA) was 86.57% and the “Mean percent maximal aggregation, White” value ([1]; 500 μg/ml AA) was 87.21%.
With `Nc1ncnc2c1ncn2[C@@H]1O[C@H](COP(=O)(O)OP(=O)(O)O)[C@@H](O)[C@H]1O` [ADP] the “Fold difference (Black/White)” value ([1]; 4 μM ADP) was 0.91 fold, the “Mean percent maximal aggregation, Black” value ([1]; 4 μM ADP) was 40.89% and the “Mean percent maximal aggregation, White” value ([1]; 4 μM ADP) was 45.04%.
In the case of `Cc1cc(C)nc(NS(=O)(=O)c2ccc(NC(=O)NC(=O)c3ccc(Cl)cc3Cl)cc2)n1` [LDN-193,188, 2,4-dichloro-N-(4-(N-(4,6-dimethylpyrimidin-2-yl)sulfamoyl)phenylcarbamoyl)-benzamide], the “Displacement of phosphatidylcholine from PC-TP” value (PC-TP [2]) is listed as “displaces phosphatidylcholine from the lipid binding pocket”, the “Thermal stability of PC-TP” value (PC-TP [2]) is listed as “increases the thermal stability” and the “Effect on PAR4-AP-induced platelet aggregation” value [3] is listed as “prevented aggregation; also recorded: blocked; also recorded: does block”. The “Phosphatidylcholine transfer activity of PC-TP” value (PC-TP [4]) was “inhibitor” and the “Effect on PAR1-AP-induced platelet aggregation” value [5] was “does not block”.
